# In the supplement of paper PMC10331698:
# ± gives the standard deviation of the averaged measurements.
# Columns and labels:
# Test in all cases: level (log10 ratio to DMSO vehicle control); higher = higher biomarker level / cell amount than vehicle control
# [1] = compound: C=CC(=O)OCC(F)(F)C(F)(F)C(F)(F)C(F)(F)C(F)(F)C(F)(F)C(F)(F)C(F)F [1H,1H,9H-Perfluorononyl acrylate]; details: in DMSO
# Procedure: (§1)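 BioMAP Diversity Plus panel of 12 human primary cell co-culture systems (3C, 4H, LPS, SAg, BT, BF4T, BE3C, CASM3C, HDF3CGF, KF3CT, MyoF, Mphg). Compounds were added 1 h before stimulation and left for 24 h (MyoF 48 h; BT 72 h for soluble read-outs or 6 d for IgG). Biomarkers were read by ELISA, cytotoxicity by SRB, PBMC viability and proliferation by Alamar Blue. Each well value was divided by the mean of 8 DMSO control wells on the same plate and log10 transformed; duplicate blinded samples were tested at 4 concentrations.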
# [2] = compound: C=CC(=O)OCC(F)(F)C(F)(F)C(F)(F)C(F)(F)COC(=O)C=C [1H,1H,6H,6H-Perfluorohexane-1,6-diol diacrylate]; details: 6700 nM; in DMSO
# Procedure: as §1
# [3] = compound: FC(F)(F)C(F)(F)C(F)(F)C(F)(F)CCI [1H,1H,2H,2H-Perfluorohexyl iodide]; details: in DMSO
# Procedure: as §1
# [4] = compound: O=C(O)C(F)(F)C(F)(F)C(F)(F)C(F)(F)C(F)(F)C(F)(F)C(F)(F)F [Ammonium perfluorooctanoate]; details: in DMSO
# Procedure: as §1
# [5] = compound: O=P(O)(O)CCC(F)(F)C(F)(F)C(F)(F)C(F)(F)C(F)(F)C(F)(F)F [2-(Perfluorohexyl)ethylphosphonic acid]; details: in DMSO
# Procedure: as §1
# [6] = compound: OCC(F)(F)C(F)(F)C(F)(F)C(F)(F)C(F)(F)C(F)(F)C(F)(F)C(F)(F)C(F)(F)C(F)(F)C(F)(F)F [11:1 Fluorotelomer alcohol]; details: in DMSO
# Procedure: as §1
# [7] = compound: OCCCCC(F)(F)C(F)(F)C(F)(F)C(F)(F)F [4:4 Fluorotelomer alcohol]; details: in DMSO
# Procedure: as §1
Test System,level (log10) ([1]; 6700 nM),level (log10) ([1]; 20000 nM),level (log10) ([1]; 60000 nM),level (log10) [2],level (log10) ([3]; 6700 nM),level (log10) ([3]; 20000 nM),level (log10) ([3]; 60000 nM),level (log10) ([4]; 6700 nM),level (log10) ([4]; 20000 nM),level (log10) ([4]; 60000 nM),level (log10) ([5]; 6700 nM),level (log10) ([5]; 20000 nM),level (log10) ([5]; 60000 nM),level (log10) ([6]; 1100 nM),level (log10) ([6]; 3300 nM),level (log10) ([6]; 10000 nM),level (log10) ([7]; 6700 nM),level (log10) ([7]; 20000 nM),level (log10) ([7]; 60000 nM)
BE3C:MMP-9,0.0015 ± 0.0035,-0.0185 ± 0.012,0 ± 0.021,-0.0435 ± 0.018,0.0015 ± 0.05,-0.006 ± 0.028,0.029 ± 0.047,-0.0145 ± 0.0064,0.047 ± 0.0042,0.0375 ± 0.021,-0.019 ± 0.0042,-0.0135 ± 0.012,0.007 ± 0.034,-0.0475 ± 0.029,-0.102 ± 0.0042,-0.0735 ± 0.019,0.0035 ± 0.032,0.014 ± 0.028,0.031 ± 0.045
HDF3CGF:MMP-1,0.006 ± 0.0057,0.03 ± 0.0057,0.0375 ± 0.016,0.0075 ± 0.0021,-0.001 ± 0.0014,0.0085 ± 0.0035,0.0145 ± 0.018,0.027 ± 0.0085,-0.002 ± 0.0099,-0.027 ± 0.062,0.006 ± 0.0071,-0.0095 ± 0.013,-0.0045 ± 0.067,-0.011 ± 0.0057,-0.042 ± 0.0014,-0.0255 ± 0.035,-0.008 ± 0.0028,0.006 ± 0.0014,0.004 ± 0.0042
BE3C:tPA,0.0175 ± 0.018,0.0315 ± 0.0035,0.026 ± 0.0099,-0.077 ± 0.0099,-0.001 ± 0.0028,0.0175 ± 0.019,0.051 ± 0.014,-0.029 ± 0.045,-0.015 ± 0.02,-0.07 ± 0.0085,-0.0765 ± 0.022,-0.0835 ± 0.0078,-0.0615 ± 0.086,-0.0125 ± 0.011,-0.033 ± 0.011,-0.008 ± 0.016,-0.0075 ± 0.00071,-0.013 ± 0.038,0.015 ± 0.021
lMphg:SRB-Mphg,-0.1115 ± 0.00071,-0.082 ± 0.11,0.0085 ± 0.097,-0.0115 ± 0.084,-0.0005 ± 0.03,-0.004 ± 0.031,0.0005 ± 0.025,-0.0045 ± 0.0092,0.006 ± 0.0057,-0.007 ± 0.02,-0.029 ± 0.023,-0.0255 ± 0.026,-0.0125 ± 0.032,-0.039 ± 0.0014,-0.105 ± 0.0085,-0.205 ± 0.0085,0.008 ± 0.016,-0.009 ± 0.0057,-0.01 ± 0.0085
HDF3CGF:Proliferation 72hr,-0.072 ± 0.079,-0.454 ± 0.021,-0.666 ± 0.15,-0.567 ± 0.013,0.0275 ± 0.025,0.0095 ± 0.076,0.006 ± 0.04,0.058 ± 0.065,0.124 ± 0.018,0.119 ± 0.021,-0.009 ± 0.068,0.119 ± 0.021,0.191 ± 0.03,-0.015 ± 0.065,0 ± 0.0099,0.021 ± 0.02,-0.003 ± 0.044,0.0205 ± 0.057,0.0355 ± 0.039
HDF3CGF:CD106/VCAM-1,-0.0565 ± 0.079,-0.29 ± 0.029,-0.453 ± 0.14,-0.676 ± 0.061,-0.043 ± 0.082,-0.0425 ± 0.026,-0.168 ± 0.022,-0.0315 ± 0.011,-0.0065 ± 0.023,-0.037 ± 0.0071,0.041 ± 0.013,0.0625 ± 0.013,0 ± 0.0057,-0.075 ± 0.011,-0.144 ± 0.013,-0.069 ± 0.075,-0.028 ± 0.083,-0.0125 ± 0.04,-0.0215 ± 0.0021
HDF3CGF:Collagen III,-0.096 ± 0.03,-0.102 ± 0.022,-0.124 ± 0.016,0.105 ± 0.11,-0.0145 ± 0.021,-0.0185 ± 0.052,-0.035 ± 0.047,0.0555 ± 0.032,-0.1 ± 0.048,-0.142 ± 0.0021,0.0135 ± 0.0078,0.0075 ± 0.018,-0.0305 ± 0.012,0.2 ± 0.0021,0.168 ± 0.057,0.171 ± 0.0042,-0.0165 ± 0.029,-0.0105 ± 0.019,0.011 ± 0.05
BE3C:Keratin 8/18,-0.037 ± 0.011,-0.0165 ± 0.005,-0.0355 ± 0.04,0.0075 ± 0.005,0 ± 0.0099,-0.0095 ± 0.013,-0.006 ± 0.0014,-0.0195 ± 0.012,-0.0215 ± 0.012,-0.0225 ± 0.0035,-0.012 ± 0.0071,-0.0175 ± 0.0021,0.0115 ± 0.03,0.0065 ± 0.04,-0.016 ± 0.035,0.018 ± 0.025,-0.0025 ± 0.0035,-0.012 ± 0.0042,0.0055 ± 0.015
lMphg:CD69,-0.048 ± 0.0028,-0.0265 ± 0.025,-0.0255 ± 0.03,-0.06 ± 0.0042,-0.019,-0.013 ± 0.013,0.043 ± 0.021,-0.0285 ± 0.018,-0.0185 ± 0.028,-0.0715 ± 0.0064,-0.045 ± 0.042,-0.0285 ± 0.023,0.0175 ± 0.053,-0.038 ± 0.017,-0.103 ± 0.028,-0.0685 ± 0.0078,-0.0475 ± 0.04,-0.063 ± 0.018,-0.014 ± 0.045
KF3CT:uPA,-0.0285 ± 0.012,-0.005 ± 0.025,-0.0395 ± 0.013,-0.057 ± 0.0057,-0.001 ± 0.02,0.0045 ± 0.013,-0.005 ± 0.0099,0.0125 ± 0.012,0.006 ± 0.017,0.001 ± 0.013,0.007 ± 0.0057,0.013 ± 0.011,0.015 ± 0.02,-0.0115 ± 0.015,-0.0335 ± 0.00071,-0.023 ± 0.016,0.01 ± 0.016,-0.0005 ± 0.00071,0.0005 ± 0.022
lMphg:M-CSF,0.0155 ± 0.04,-0.0225 ± 0.018,-0.042 ± 0.025,-0.0105 ± 0.015,-0.018 ± 0.017,-0.0275 ± 0.018,0.0185 ± 0.0035,-0.018 ± 0.0099,-0.018 ± 0.037,0.0055 ± 0.0021,-0.0175 ± 0.016,-0.0335 ± 0.015,-0.0075 ± 0.016,-0.0045 ± 0.005,-0.0195 ± 0.0078,-0.0735 ± 0.016,-0.0185 ± 0.019,-0.0095 ± 0.0035,0.0105 ± 0.042
BE3C:MMP-1,-0.023 ± 0.013,-0.009 ± 0.027,0.038 ± 0.064,-0.0035 ± 0.011,0 ± 0.023,0.017 ± 0.021,0.0975 ± 0.023,0.034 ± 0.018,0.113 ± 0.014,0.283 ± 0.041,0.002 ± 0.017,0.0005 ± 0.026,0.052 ± 0.075,-0.0275 ± 0.018,-0.0685 ± 0.015,-0.077,0.0005 ± 0.03,0.006 ± 0.02,0.022 ± 0.05
